Data taken from ChEMBL document CHEMBL1201862, “PubChem BioAssay data set” (2004).
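Each compound was tested at five concentrations against cells in 96-well plates for 48 hours. The concentration for 50% growth inhibition is given as GI50.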 Calls of active or inactive are those of the source. Rule as the data show it: active = GI50 up to about 1.1 µM and inactive = higher.

Tests used:
Experiment in all cases: DTP human tumour cell line panel, 48 h
BT-549 = test system: BT-549
HCC 2998 = test system: HCC 2998
TK-10 = test system: TK-10
CAKI-1 = test system: CAKI-1
HOP-62 = test system: HOP-62
CCRF-CEM = test system: CCRF-CEM
HL-60 = test system: HL-60
SK-OV-3 = test system: SK-OV-3
SR = test system: SR
EKVX = test system: EKVX
SNB-75 = test system: SNB-75
RPMI-8226 = test system: RPMI-8226
M14 = test system: M14
LOX IMVI = test system: LOX IMVI
HCT-116 = test system: HCT-116
KM12 = test system: KM12
ACHN = test system: ACHN
A549 = test system: A549
IGROV-1 = test system: IGROV-1
K562 = test system: K562

SMILES	GI50 (BT-549)	GI50 (HCC 2998)	GI50 (TK-10)	GI50 (CAKI-1)	GI50 (HOP-62)	GI50 (CCRF-CEM)	GI50 (HL-60)	GI50 (SK-OV-3)	GI50 (SR)	GI50 (EKVX)	GI50 (SNB-75)	GI50 (RPMI-8226)	GI50 (M14)	GI50 (LOX IMVI)	GI50 (HCT-116)	GI50 (KM12)	GI50 (ACHN)	GI50 (A549)	GI50 (IGROV-1)	GI50 (K562)
CN(C)c1ccc(/C=N/n2c(-c3ccccc3)nc3ccccc3c2=O)cc1	65.8 µM (inactive)	> 100 µM (inactive)	81.7 µM (inactive)	29.7 µM (inactive)	> 100 µM (inactive)	46.8 µM (inactive)	40 µM (inactive)	80.5 µM (inactive)	14.1 µM (inactive)	> 100 µM (inactive)	24.4 µM (inactive)	20.4 µM (inactive)	79.6 µM (inactive)	80.2 µM (inactive)	50.6 µM (inactive)	24.8 µM (inactive)	18.5 µM (inactive)	53.5 µM (inactive)	> 100 µM (inactive)	–
O=C(O)C(CCc1ccccn1)c1ccccc1 (centres undefined)	> 100 µM (inactive)	> 100 µM (inactive)	> 100 µM (inactive)	> 100 µM (inactive)	> 100 µM (inactive)	–	1 µM (active)	> 100 µM (inactive)	> 100 µM (inactive)	> 100 µM (inactive)	> 100 µM (inactive)	> 100 µM (inactive)	> 100 µM (inactive)	> 100 µM (inactive)	> 100 µM (inactive)	> 100 µM (inactive)	> 100 µM (inactive)	> 100 µM (inactive)	> 100 µM (inactive)	> 100 µM (inactive)
CC1=C(C(=O)N[C@@H](Cc2ccccc2)C(=O)O)N2C(=O)[C@@H](NC(=O)[C@@H](N)CC(C)C)[C@H]2SC1	> 100 µM (inactive)	> 100 µM (inactive)	> 100 µM (inactive)	> 100 µM (inactive)	–	> 100 µM (inactive)	> 100 µM (inactive)	–	> 100 µM (inactive)	> 100 µM (inactive)	> 100 µM (inactive)	> 100 µM (inactive)	> 100 µM (inactive)	> 100 µM (inactive)	–	> 100 µM (inactive)	> 100 µM (inactive)	> 100 µM (inactive)	> 100 µM (inactive)	> 100 µM (inactive)
O=C1CSC2(CC(/C=C/c3ccccc3Br)=NN2c2cccc(S(=O)(=O)O)c2)N1c1nc2ccccc2s1 (centres undefined)	> 100 µM (inactive)	> 100 µM (inactive)	45.7 µM (inactive)	> 100 µM (inactive)	–	30.5 µM (inactive)	> 100 µM (inactive)	–	33 µM (inactive)	> 100 µM (inactive)	> 100 µM (inactive)	44.8 µM (inactive)	> 100 µM (inactive)	> 100 µM (inactive)	> 100 µM (inactive)	98.4 µM (inactive)	> 100 µM (inactive)	> 100 µM (inactive)	55.1 µM (inactive)	54.8 µM (inactive)
CC1=NC(=Cc2ccccc2O)C(=O)N1n1c(-c2ccccc2)nc2ccccc2c1=O	57.7 µM (inactive)	38.1 µM (inactive)	39.4 µM (inactive)	–	55.1 µM (inactive)	26.6 µM (inactive)	35.6 µM (inactive)	33.3 µM (inactive)	32.5 µM (inactive)	34.9 µM (inactive)	34.1 µM (inactive)	48.5 µM (inactive)	61.1 µM (inactive)	33 µM (inactive)	26.5 µM (inactive)	67 µM (inactive)	29.7 µM (inactive)	35.1 µM (inactive)	32.1 µM (inactive)	30.5 µM (inactive)
COc1ccc(C2=NNC(c3cc4cc(Br)ccc4nc3Cl)C2)cc1 (centres undefined)	14.5 µM (inactive)	11.5 µM (inactive)	–	12.6 µM (inactive)	–	0.13 µM (active)	6.19 µM (inactive)	–	0.185 µM (active)	19.4 µM (inactive)	0.0631 µM (active)	5.74 µM (inactive)	11.5 µM (inactive)	–	10.5 µM (inactive)	22.9 µM (inactive)	13.2 µM (inactive)	–	9.42 µM (inactive)	6.21 µM (inactive)
CC(=O)OC1COC(Nc2nc(N)n(C)c(=O)c2N=O)C(OC(C)=O)C1OC(C)=O (centres undefined)	> 10 µM (inactive)	> 10 µM (inactive)	> 10 µM (inactive)	> 10 µM (inactive)	> 10 µM (inactive)	> 10 µM (inactive)	> 10 µM (inactive)	> 10 µM (inactive)	> 10 µM (inactive)	> 10 µM (inactive)	> 10 µM (inactive)	> 10 µM (inactive)	> 10 µM (inactive)	> 10 µM (inactive)	> 10 µM (inactive)	> 10 µM (inactive)	> 10 µM (inactive)	> 10 µM (inactive)	> 10 µM (inactive)	–
CC12CCC(Br)C(C)(C)C1CC=C1C(=O)OCC1O2 (centres undefined)	14.9 µM (inactive)	12.1 µM (inactive)	14 µM (inactive)	11.6 µM (inactive)	–	–	1.84 µM (inactive)	9.06 µM (inactive)	5.15 µM (inactive)	16.5 µM (inactive)	15.5 µM (inactive)	2.73 µM (inactive)	20.5 µM (inactive)	9.57 µM (inactive)	12.9 µM (inactive)	14.2 µM (inactive)	12.5 µM (inactive)	23.6 µM (inactive)	3.72 µM (inactive)	12.7 µM (inactive)
